Values joined by “and” are separate entries in the source; they are usually repeats but may differ in a detail not shown here. Identical values can stand only once.
System: preferentially upregulated genes in LV, SP, LN
Experiment: Z-score-based differential gene expression analysis (adjuvant group- or adjuvant-associated genes, 40 module mapping, TargetMine annotation)
Type: in vivo, C57BL/6 mice
Details: ID
Procedure, shortened: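 Per-sample fold-change values converted to gene-wise z-scores within each organ's data set, then triplicate z-scores summed per adjuvant. Genes with summed score >3 taken as preferentially expressed; gene groups defined by combined per-adjuvant z-score thresholds (z>1 to z>3) specific to each organ.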

SMILES: Nc1nc2c(ncn2[C@@H]2O[C@@H]3COP(=O)(O)O[C@H]4[C@@H](O)[C@H](n5cnc6c(=O)[nH]c(N)nc65)O[C@@H]4COP(=O)(O)O[C@H]3[C@H]2O)c(=O)[nH]1 [cdiGMP, Cyclic diguanylate monophosphate]
- z-score of fold change, 1439349_at Sbno2 (LN, samples x1-x3, Modules 29): 1.367 and 1.407 and 1.166
- z-score of fold change, 1444010_at Eif4e (LN, samples x1-x3, Modules 29): 1.659 and 1.049 and 1.227
- z-score of fold change, 1448325_at Ppp1r15a (LN, samples x1-x3, Modules 29): 1.314 and 1.203 and 1.441
- z-score of fold change, 1449311_at Bach1 (LN, samples x1-x3, Modules 29): 1.178 and 1.558 and 1.189
- z-score of fold change, 1450297_at Il6 (LN, samples x1-x3, Modules 29): 1.437 and 0.989 and 1.53
- z-score of fold change, 1455197_at Rnd1 (LN, samples x1-x3, Modules 29): 1.54 and 1.27 and 1.166
- z-score of fold change, 1455899_x_at Socs3 (LN, samples x1-x3, Modules 29): 1.206 and 1.544 and 1.18
- z-score of fold change, 1417252_at Ptgs2 (LN, samples x1-x3, Modules 34): 1.507 and 1.214 and 1.232
- z-score of fold change, 1417263_at Ptgs2 (LN, samples x1-x3, Modules 34): 1.51 and 0.965 and 1.47
- z-score of fold change, 1419132_at Tlr2 (LN, samples x1-x3, Modules 34): 1.576 and 1.128 and 1.246
- z-score of fold change, 1421473_at Il1a (LN, samples x1-x3, Modules 34): 1.525 and 1.178 and 1.257
- z-score of fold change, 1439981_at Tespa1 (LN, samples x1-x3, Modules 35): 1.343 and 1.427 and 1.18
- z-score of fold change, 1441843_s_at 5230400M03Rik (LN, samples x1-x3, Modules 35): 1.442 and 1.354 and 1.171
- z-score of fold change, 1442556_at --- (LN, samples x1-x3, Modules 35): 1.421 and 1.315 and 1.245
- z-score of fold change, 1443414_at C78513 (LN, samples x1-x3, Modules 35): 1.402 and 0.963 and 1.557
- z-score of fold change, 1444598_at --- (LN, samples x1-x3, Modules 35): 1.559 and 1.318 and 1.053
- z-score of fold change, 1445534_at --- (LN, samples x1-x3, Modules 35): 1.345 and 1.515 and 1.078
- z-score of fold change, 1446245_at --- (LN, samples x1-x3, Modules 35): 1.239 and 1.22 and 1.46
- z-score of fold change, 1457944_at --- (LN, samples x1-x3, Modules 35): 1.366 and 1.428 and 1.146
- z-score of fold change, 1458376_at B930025B16Rik (LN, samples x1-x3, Modules 35): 1.188 and 1.502 and 1.273
- z-score of fold change, 1459144_at --- (LN, samples x1-x3, Modules 35): 1.275 and 1.199 and 1.493
- z-score of fold change, 1425687_at Cflar (LN, samples x1-x3, Modules 36): 1.199 and 1.3 and 1.469
- z-score of fold change, 1427736_a_at Ccrl2 (LN, samples x1-x3, Modules 36): 1.328 and 1.075 and 1.554
- z-score of fold change, 1449169_at Has2 (LN, samples x1-x3, Modules 36): 1.306 and 1.158 and 1.458
- z-score of fold change, 1453636_at Pcgf5 (LN, samples x1-x3, Modules 36): 1.332 and 1.143 and 1.496
- z-score of fold change, 1457888_at --- (LN, samples x1-x3, Modules 36): 1.466 and 1.08 and 1.38
- z-score of fold change, 1419508_at Ripk1 (LN, samples x1-x3, Modules 37): 1.035 and 1.437 and 1.467
- z-score of fold change, 1421578_at Ccl4 (LN, samples x1-x3, Modules 37): 1.402 and 1.22 and 1.368
- z-score of fold change, 1421679_a_at Cdkn1a (LN, samples x1-x3, Modules 37): 1.429 and 1.421 and 1.13
- z-score of fold change, 1424638_at Cdkn1a (LN, samples x1-x3, Modules 37): 1.624 and 1.232 and 1.074
- z-score of fold change, 1433508_at Klf6 (LN, samples x1-x3, Modules 37): 1.271 and 1.413 and 1.263
- z-score of fold change, 1434350_at Csrnp1 (LN, samples x1-x3, Modules 37): 1.353 and 1.305 and 1.308
- z-score of fold change, 1439680_at Tnfsf10 (LN, samples x1-x3, Modules 37): 1.169 and 1.36 and 1.399
- z-score of fold change, 1448724_at Cish (LN, samples x1-x3, Modules 37): 1.476 and 1.357 and 1.106
- z-score of fold change, 1451340_at Arid5a (LN, samples x1-x3, Modules 37): 1.5 and 1.292 and 1.161
- z-score of fold change, 1453851_a_at Gadd45g (LN, samples x1-x3, Modules 37): 1.368 and 1.383 and 1.21
- z-score of fold change, 1457404_at Nfkbiz (LN, samples x1-x3, Modules 37): 1.371 and 1.232 and 1.386
- z-score of fold change, 1458589_at --- (LN, samples x1-x3, Modules 37): 1.137 and 1.339 and 1.469
- z-score of fold change, 1422054_a_at 5kil (LN, samples x1-x3, Modules 40): 1.491 and 1.218 and 1.211
- z-score of fold change, 1428735_at Cd69 (LN, samples x1-x3, Modules 40): 1.22 and 1.344 and 1.378
- Adar 1425405_a_at (Group G1, Modules 20) (LV, sample x1): 1.58
- Adar 1434268_at (Group G1, Modules 20) (LV, sample x1): 1.7
- Ddx58 1436562_at (Group G1, Modules 20) (LV, sample x1): 0.94
- Ddx58 1456890_at (Group G1, Modules 20) (LV, sample x1): 1.2
- Eif2ak2 1422005_at (Group G1, Modules 20) (LV, sample x1): 1.02
- G3bp2 1421323_a_at (Group G1, Modules 20) (LV, sample x1): 1.74
- Gm9706///Isg15 1431591_s_at (Group G1, Modules 20) (LV, sample x1): 1.01
- H2-T10///H2-T22///H2-T9 1449875_s_at (Group G1, Modules 20) (LV, sample x1): 1.07
- Ifih1 1426276_at (Group G1, Modules 20) (LV, sample x1): 0.89
- Ifit1 1450783_at (Group G1, Modules 20) (LV, sample x1): 2.21
- Ifit3 1449025_at (Group G1, Modules 20) (LV, sample x1): 1.7
- Irf7 1417244_a_at (Group G1, Modules 20) (LV, sample x1): 0.85
- Irgm1 1418825_at (Group G1, Modules 20) (LV, sample x1): 1.33
- Mndal 1426906_at (Group G1, Modules 20) (LV, sample x1): 1.77
- Pml 1448757_at (Group G1, Modules 20) (LV, sample x1): 1.41
- Pml 1456103_at (Group G1, Modules 20) (LV, sample x1): 1.31
- Rnf213 1455500_at (Group G1, Modules 20) (LV, sample x1): 2.07
- Rsad2 1436058_at (Group G1, Modules 20) (LV, sample x1): 2.39
- Shisa5 1423986_a_at (Group G1, Modules 20) (LV, sample x1): 0.72

Source: patent US20230021483A1, “[…] […] METHOD AND CLASSIFICATION OF PHARMACEUTICAL COMPONENTS BY USING TRANSCRIPTOMES” (National Institutes of Biomedical Innovation, Health and …, priority 2016, published 2023)
